System: forearm skin of a test subject
Assay: Skin irritation test of patches (primary skin irritation index)
Assay type: in vivo
Conditions: for Effect on relief of skin irritation caused by tolterodine, result in words: conclusion from Table 4, essential oil in tolterodine patch
Experimental: Each of the patches produced in Production Examples 1 and 2 was cut to a size of 1 cm×1 cm. The specimen was attached to the forearm skin of a test subject and fixed with a medical tape to prevent detachment during the test period. After 24 hr, the medical tape and the patch were removed with care. After 1 hr, the primary skin irritation index of the patch for skin irritations including erythema and edema was determined with the help of an expert.
Skin irritation tests were conducted in the same manner as in Test Example 1.

Compound	Effect on relief of skin irritation caused by tolterodine, result in words	Skin irritation (erythema, edema), result in words (conclusion from Table 2)
CC(C)=CCC[C@](C)(O)C1CC=C(C)CC1 (stereo partly drawn) [bisabolol]	outstanding effects on skin irritation relief	–
C=CCc1ccc(O)c(OC)c1 [eugenol]	outstanding effects on skin irritation relief	–
Cc1ccc(O)c([C@H](CCN(C(C)C)C(C)C)c2ccccc2)c1 [tolterodine, 2-[(1R)-3-(diisopropylamino)-1-phenylpropyl)-4-methylphenol]	–	causing skin irritations

Reference: US20130046025A1, “COMPOSITION WITH LOW SKIN IRRITATION FOR TRANSDERMAL DELIVERY OF TOLTERODINE” (SK Chemicals Co., Ltd., priority 2010, published 2013)
